Patent US4880820A, “Guanine derivatives” (Merck & Co., Inc., priority 1988, dated 1989)
Converted amounts (≈) assume the structure as drawn.

Legend:
[1] = system: Herpes simplex virus type 1 (HSV-1), strain Schooler; assay: Parenteral (subcutaneous) treatment of Herpes simplex virus type 1 infection in mice; assay type: in vivo, ICR/Ha mice; conditions: s.c.
Protocol: (§1) Twenty gram ICR/Ha mice were injected intraperitoneally (ip) with 0.5 ml of a 10^-5 dilution of a stock preparation of Herpes simplex virus type 1 (HSV-1), strain Schooler. This virus challenge infected each animal with approximately 50 to 100 LD50. Starting immediately after virus infection and continuing twice daily for 4 days, each animal was injected subcutaneously in groups of 10 with: 125 μg, 31 μg, 8 μg or 2 μg of compounds A, B or C; or placebo (physiological saline, pH 11.5). All compounds were solubilized in physiological saline, pH 11.5. The mice were observed daily for 15 days at the same time each day and the day of death was recorded for each animal.
Statistical analyses [reference: Liddel, F.D.K., Evaluation of Survival in Challenge Experiments, Microbiol. Rev., 42, 237 (1978)]were performed on survival times transformed by the negative exponential transformation:
t=number of days an animal survived
T=duration of trial (15 days)
A continuity correction was used to account for daily observation:
Within each group, mice surviving through the trial period were assigned equally values of 0.9 and 1.0 to adjust for termination of the trial.
Average survival time per group was calculated from average corrected transformed survival times [fc (t)] as follows:
t avg=[T/log(0.1).[log(1-fc (t)]

[2] = system: Herpes simplex virus type 1 (HSV-1), strain Schooler; assay: Oral treatment of intraperitoneal HSV-1 infection of mice (Example 16); assay type: in vivo, ICR/Ha mice
Protocol: as §1, with “(i.p.)” for “(ip)”, “LD50 s.” for “LD50.”, “7” for “4”, “treated by oral gavage” for “injected subcutaneously”, “with: 250 μg, 125 μg, 8 μg or 2 μg of (S)-9-(2,3-dihydroxy-1-propoxymethyl)guanine; 500 μg,” for “with:”, “racemic 9-(2,3-dihydroxy-1-propoxymethyl)guanine;” for “compounds A, B or C;”
(§2) The statistical analyses were carried out as described in Example 15.

[3] = system: Herpes simplex virus Type 1 (Schooler); assay: Method 2: virus plaque reduction in MRC-5 cells, HSV-1; assay type: cell-based; conditions: Human alphaherpesvirus 1, MRC5, 72 h; HSV-1 (Schooler), MRC-5 cells, 3 days; 50% reduction of plaque development; read-out: ED50 (the source's name)
Protocol: Method 2: Confluent monolayers of MRC-5 cells were incubated for one hour at 37° C. with 50-100 plaque forming units of the indicated virus. Following incubation, the cell monolayers were refed with maintenance medium containing 2% methyl cellulose and the chemical agent indicated. Duplicate cultures were incubated with each concentration of the chemical agent tested. Following further incubation for 3 days at 37° C., the monolayers were stained and the developed virus plaques were counted. The concentration (μg/ml) of each chemical agent which reduced plaque development by 50% (ED50) was determined.

[4] = system: Herpes simplex virus Type 2 (Curtis); assay: Method 1: inhibition of viral induced cytopathology in primary rabbit kidney cell cultures, HSV-2; assay type: cell-based; conditions: Human alphaherpesvirus 2; HSV-2 (Curtis), primary rabbit kidney cells; total suppression of cytopathology in 50% of cultures; read-out: Minimum Effective Concentration
Protocol: (§3) Method 1: Confluent monolayers of primary rabbit kidney cell cultures were refed with maintenance medium containing serial dilutions of the test compounds and incubated overnight at 37° C. At each dilution, four cultures were challenged with approximately 10 TCID50 HSV-1, four cultures were challenged with approximately 10 TCID50 HSV-2,and two cultures were left as toxicity controls. Cultures were reincubated at 37° C. and observed for viral induced cytopathology at days 5 and 7. Minimum Effective Concentration (μg/ml) is defined as the concentration of antiviral compound required to totally suppress the development of viral cytopathology in 50% of the infected rabbit kidney cell cultures.

[5] = system: Herpes simplex virus Type 1 (Schooler); assay: Method 1: inhibition of viral induced cytopathology in primary rabbit kidney cell cultures, HSV-1; assay type: cell-based; conditions: Human alphaherpesvirus 1; HSV-1 (Schooler), primary rabbit kidney cells; total suppression of cytopathology in 50% of cultures; read-out: Minimum Effective Concentration
Protocol: as §3

[6] = system: Herpes simplex virus type 1 (HSV-1), strain Schooler; assay: Oral treatment of intraperitoneal HSV-1 infection of mice (Example 17); assay type: in vivo, ICR/Ha mice; conditions: for Percent Survival: at 15 days
Protocol: Twenty gram ICR/Ha mice were injected intraperitoneally (i.p.) with 0.5 ml of a 10^-5 dilution of a stock preparation of Herpes Simplex virus type 1 (HSV-1), strain Schooler. This virus challenge infected mice with approximately 50 to 100 LD50. Starting immediately after virus infection and continuing twice daily for 7 days, each animal was treated by oral gavage in groups of 10 with: 500 μg, 125 μg, 31 μg or 8 μg of (S)-9-(2,3-dihydroxy-1propoxymethyl)guanine; 500 μg, 125 μg, 31 μg or 8 μg of acyclovir or placebo (physiological saline, pH 11.5). All compounds were solubilized in physiological saline, pH 11.5.
as §2

[7] = system: Herpes simplex virus type 1 (HSV-1), strain Schooler; assay: Parenteral (subcutaneous) treatment of Herpes simplex virus type 1 infection in mice; assay type: in vivo, ICR/Ha mice; conditions: tested not at the same time as A, B, C; for Percent Survival: at 15 days
[8] = 2 μg/dose twice daily for 4 days, 0.2 mg/kg/day, ^3 (all): not statistically different from placebo
[9] = 2 μg/dose twice daily for 4 days, 0.2 mg/kg/day, at 15 days
[10] = 8 μg/dose twice daily for 4 days, 0.8 mg/kg/day, ^3 (all): not statistically different from placebo
[11] = 8 μg/dose twice daily for 4 days, 0.8 mg/kg/day, at 15 days
[12] = 31 μg/dose twice daily for 4 days, 3.1 mg/kg/day, ^3 (all): not statistically different from placebo
[13] = 31 μg/dose twice daily for 4 days, 3.1 mg/kg/day, at 15 days
[14] = 125 μg/dose twice daily for 4 days, 12.5 mg/kg/day, ^3 (B, acyclovir): not statistically different from placebo
[15] = 125 μg/dose twice daily for 4 days, 12.5 mg/kg/day, at 15 days (acyclovir not at the same time)
[16] = 31 μg/dose twice daily for 7 days, 3.1 mg/kg/day, ^3 (all): not statistically different from placebo
[17] = 31 μg/dose twice daily for 7 days, 3.1 mg/kg/day, at 15 days (acyclovir not at the same time)
[18] = 125 μg/dose twice daily for 7 days, 12.5 mg/kg/day, ^3 (racemate, acyclovir): not statistically different from placebo
[19] = 125 μg/dose twice daily for 7 days, 12.5 mg/kg/day, at 15 days (acyclovir not at the same time)
[20] = 500 μg/dose twice daily for 7 days, 50 mg/kg/day (acyclovir not at the same time)
[21] = 500 μg/dose twice daily for 7 days, 50 mg/kg/day, at 15 days (acyclovir not at the same time)
[22] = 125 μg/dose twice daily for 7 days, 12.5 mg/kg/day
[23] = 500 μg/dose twice daily for 7 days, 50 mg/kg/day

Row | Structure (SMILES) | Avg. Survival Time [1, 8] | Percent Survival [1, 9] | Avg. Survival Time [1, 10] | Percent Survival [1, 11] | Avg. Survival Time [1, 12] | Percent Survival [1, 13] | Avg. Survival Time [1, 14] | Percent Survival [1, 15] | Avg. Survival Time [2, 16] | Percent Survival [2, 17] | Avg. Survival Time [2, 18] | Percent Survival [2, 19] | Avg. Survival Time [2, 20] | Percent Survival [2, 21] | EC50 [3] | minimal effective concentration [4] | minimal effective concentration [5] | further results
1 | Nc1nc2c(ncn2COCC(O)CO)c(=O)[nH]1 (racemic) [C, Racemic 9-(2,3-dihydroxy-1-propoxymethyl)guanine] | 6.7 days | 10% | 6.6 days | 0% | 7.2 days | 0% | 8.6 days | 20% | 7.6 days | 0% | 8.4 days | 10% | 10.7 days | 20% | 1 µg/mL (≈ 3.92 µM) | 6 to 12 µg/mL | 3.1 to 6 µg/mL | Avg. Survival Time ([2]; 2 μg/dose twice daily for 7 days, 0.2 mg/kg/day, ^3 (all): not statistically different from placebo): 6.9 days; Percent Survival ([2]; 2 μg/dose twice daily for 7 days, 0.2 mg/kg/day, at 15 days): 0%; Avg. Survival Time ([2]; 8 μg/dose twice daily for 7 days, 0.8 mg/kg/day, ^3 (all): not statistically different from placebo): 6.8 days; Percent Survival ([2]; 8 μg/dose twice daily for 7 days, 0.8 mg/kg/day, at 15 days): 0%; protection over placebo-treated animals, as measured by average survival time ([2]; 50 mg/kg/day): conferred significant protection over placebo-treated animals
2 | Nc1nc2c(ncn2COCCO)c(=O)[nH]1 [Acyclovir, 9-(2-hydroxyethoxymethyl)guanine] |  |  |  |  |  |  | 7.0 days | 6% | 6.3 days | 0% | 6.6 days | 0% | 8.2 days | 20% |  |  |  | Avg. Survival Time ([6]; 8 μg/dose twice daily for 7 days, 0.8 mg/kg/day, ^b (all): not statistically different from placebo): 6.1 days; Percent Survival ([6]; 8 μg/dose twice daily for 7 days, 0.8 mg/kg/day): 0%; Avg. Survival Time ([6]; 31 μg/dose twice daily for 7 days, 3.1 mg/kg/day, ^b (all): not statistically different from placebo): 6.5 days; Percent Survival ([6]; 31 μg/dose twice daily for 7 days, 3.1 mg/kg/day): 0%; Avg. Survival Time [6, 22]: 7.6 days; Percent Survival [6, 22]: 10%; Avg. Survival Time [6, 23]: 8.7 days; Percent Survival [6, 23]: 20%; protection over placebo-treated animals, as measured by average survival time ([6]; 12.5 mg/kg/day): conferred significant protection over placebo-treated animals; protection over placebo-treated animals, as measured by average survival time ([6]; 50 mg/kg/day): conferred significant protection over placebo-treated animals; Percent Survival ([2]; 1000 μg/dose, 100 mg/kg/day, at 15 days, tested not at the same time): 60%; Avg. Survival Time ([2]; 1000 μg/dose, 100 mg/kg/day, tested not at the same time): 11.4 days; Percent Survival ([7]; 500 μg/dose, 50 mg/kg/day): 0%; Avg. Survival Time ([7]; 500 μg/dose, 50 mg/kg/day): 7.8 days; Percent Survival ([7]; 1000 μg/dose, 100 mg/kg/day): 10%; Avg. Survival Time ([7]; 1000 μg/dose, 100 mg/kg/day): 7.8 days
3 | Nc1nc2c(ncn2COC[C@H](O)CO)c(=O)[nH]1 [B, (R)-9-(2,3-dihydroxy-1-propoxymethyl)guanine] | 6.0 days | 0% | 6.3 days | 0% | 6.5 days | 10% | 7.5 days | 10% |  |  |  |  |  |  | 6.2 µg/mL (≈ 24.3 µM) | 25 to 50 µg/mL | 25 µg/mL | 
